Experimental data as given in ChEMBL document CHEMBL2440076, “New triarylpyrazoles as broad-spectrum anticancer agents: design, synthesis, and biological evaluation” (Eur J Med Chem, 2013).

Experiments:
Assay type in all cases: functional
ACHN [1] = assay: Growth inhibition of human ACHN cells assessed as cell growth at 10^-5 M after 48 hrs by sulforhodamine B assay; conditions: read-out: Activity
IGROV-1 = assay: Growth inhibition of human IGROV1 cells assessed as cell growth at 10^-5 M after 48 hrs by sulforhodamine B assay; conditions: IGROV-1, 48 h, read-out: Activity
SR = assay: Growth inhibition of human SR cells assessed as cell growth at 10^-7 M after 48 hrs by sulforhodamine B assay; conditions: read-out: Activity
HOP-92 = assay: Growth inhibition of human HOP92 cells assessed as cell growth at 10^-5 M after 48 hrs by sulforhodamine B assay; conditions: HOP-92, 48 h, read-out: Activity
MCF7 [2] = assay: Growth inhibition of human MCF7 cells assessed as cell growth at 10^-7 M after 48 hrs by sulforhodamine B assay; conditions: MCF7, 48 h, read-out: Activity
SF-295 = assay: Growth inhibition of human SF295 cells assessed as cell growth at 10^-5 M after 48 hrs by sulforhodamine B assay; conditions: SF-295, 48 h, read-out: Activity
OVCAR-4 = assay: Growth inhibition of human OVCAR4 cells assessed as cell growth at 10^-5 M after 48 hrs by sulforhodamine B assay; conditions: OVCAR-4, 48 h, read-out: Activity
786-0 = assay: Growth inhibition of human 786-0 cells assessed as cell growth at 10^-7 M after 48 hrs by sulforhodamine B assay; conditions: 786-0, 48 h, read-out: Activity
[3] = Growth inhibition of human HCC2998 cells assessed as cell growth at 10^-5 M after 48 hrs by sulforhodamine B assay; conditions: HCC 2998, 48 h, read-out: Activity
Malme-3M = assay: Growth inhibition of human MALME-3M cells assessed as cell growth at 10^-4 M after 48 hrs by sulforhodamine B assay; conditions: read-out: Activity
HL-60(TB) = assay: Growth inhibition of human HL-60(TB) cells assessed as cell growth at 10^-4 M after 48 hrs by sulforhodamine B assay; conditions: HL-60, 48 h, read-out: Activity
U-251 [4] = assay: Growth inhibition of human U251 cells assessed as cell growth at 10^-8 M after 48 hrs by sulforhodamine B assay; conditions: U-251, 48 h, read-out: Activity
A498 = assay: Growth inhibition of human A498 cells assessed as cell growth at 10^-8 M after 48 hrs by sulforhodamine B assay; conditions: A498, 48 h, read-out: Activity
SK-MEL-2 [5] = assay: Growth inhibition of human SK-MEL-2 cells assessed as cell growth at 10^-6 M after 48 hrs by sulforhodamine B assay; conditions: SK-MEL-2, 48 h, read-out: Activity
MCF7 [6] = assay: Growth inhibition of human MCF7 cells assessed as cell growth at 10^-6 M after 48 hrs by sulforhodamine B assay; conditions: MCF7, 48 h, read-out: Activity
COLO 205 = assay: Growth inhibition of human COLO205 cells assessed as cell growth at 10^-8 M after 48 hrs by sulforhodamine B assay; conditions: COLO 205, 48 h, read-out: Activity
NCI-H322M = assay: Growth inhibition of human NCI-H322M cells assessed as cell growth at 10^-8 M after 48 hrs by sulforhodamine B assay; conditions: read-out: Activity
SK-MEL-28 = assay: Growth inhibition of human SK-MEL-28 cells assessed as cell growth at 10^-8 M after 48 hrs by sulforhodamine B assay; conditions: SK-MEL-28, 48 h, read-out: Activity
T47D = assay: Growth inhibition of human T47D cells assessed as cell growth at 10^-8 M after 48 hrs by sulforhodamine B assay; conditions: read-out: Activity
HCT-116 = assay: Growth inhibition of human HCT116 cells assessed as cell growth at 10^-6 M after 48 hrs by sulforhodamine B assay; conditions: HCT-116, 48 h, read-out: Activity
NCI-H460 = assay: Growth inhibition of human NCI-H460 cells assessed as cell growth at 10^-4 M after 48 hrs by sulforhodamine B assay; conditions: NCI-H460, 48 h, read-out: Activity
NCI-H23 = assay: Growth inhibition of human NCI-H23 cells assessed as cell growth at 10^-6 M after 48 hrs by sulforhodamine B assay; conditions: NCI-H23, 48 h, read-out: Activity
MDA-MB-435 = assay: Growth inhibition of human MDA-MB-435 cells assessed as cell growth at 10^-8 M after 48 hrs by sulforhodamine B assay; conditions: MDA-MB-435, 48 h, read-out: Activity
MDA-MB-468 = assay: Growth inhibition of human MDA-MB-468 cells assessed as cell growth at 10^-5 M after 48 hrs by sulforhodamine B assay; conditions: MDA-MB-468, 48 h, read-out: Activity
SF-539 = assay: Growth inhibition of human SF539 cells assessed as cell growth at 10^-7 M after 48 hrs by sulforhodamine B assay; conditions: SF-539, 48 h, read-out: Activity
OVCAR-3 = assay: Growth inhibition of human OVCAR3 cells assessed as cell growth at 10^-5 M after 48 hrs by sulforhodamine B assay; conditions: OVCAR-3, 48 h, read-out: Activity
SW-620 = assay: Growth inhibition of human SW620 cells assessed as cell growth at 10^-5 M after 48 hrs by sulforhodamine B assay; conditions: SW-620, 48 h, read-out: Activity
U-251 [7] = assay: Growth inhibition of human U251 cells assessed as cell growth at 10^-6 M after 48 hrs by sulforhodamine B assay; conditions: U-251, 48 h, read-out: Activity
RXF 393 = assay: Growth inhibition of human RXF393 cells assessed as cell growth at 10^-4 M after 48 hrs by sulforhodamine B assay; conditions: RXF 393, 48 h, read-out: Activity
ACHN [8] = assay: Growth inhibition of human ACHN cells assessed as cell growth at 10^-8 M after 48 hrs by sulforhodamine B assay; conditions: read-out: Activity
M14 = assay: Growth inhibition of human M14 cells assessed as cell growth at 10^-8 M after 48 hrs by sulforhodamine B assay; conditions: M14, 48 h, read-out: Activity
HOP-62 = assay: Growth inhibition of human HOP62 cells assessed as cell growth at 10^-8 M after 48 hrs by sulforhodamine B assay; conditions: HOP-62, 48 h, read-out: Activity
MOLT-4 = assay: Growth inhibition of human MOLT4 cells assessed as cell growth at 10^-8 M after 48 hrs by sulforhodamine B assay; conditions: MOLT-4, 48 h, read-out: Activity
NCI-H522 = assay: Growth inhibition of human NCI-H522 cells assessed as cell growth at 10^-5 M after 48 hrs by sulforhodamine B assay; conditions: NCI-H522, 48 h, read-out: Activity
SK-MEL-2 [9] = assay: Growth inhibition of human SK-MEL-2 cells assessed as cell growth at 10^-5 M after 48 hrs by sulforhodamine B assay; conditions: SK-MEL-2, 48 h, read-out: Activity
UACC-62 = assay: Growth inhibition of human UACC62 cells assessed as cell growth at 10^-5 M after 48 hrs by sulforhodamine B assay; conditions: UACC-62, 48 h, read-out: Activity

COc1cc(-c2nn(-c3cccc(NC(=O)c4ccccc4)c3)cc2-c2ccncc2)ccc1Cl
growth at 10 µM (ACHN [1]): 26%
growth at 10 µM (IGROV-1): 28%
growth at 0.1 µM (SR): 79%
growth at 10 µM (HOP-92): -8%
growth at 0.1 µM (MCF7 [2]): 87%
growth at 10 µM (SF-295): -27%
growth at 10 µM (OVCAR-4): 33%
growth at 0.1 µM (786-0): 92%
growth at 10 µM [3]: 7%
growth at 100 µM (Malme-3M): 20%
growth at 100 µM (HL-60(TB)): 16%
growth at 0.01 µM (U-251 [4]): 96%
growth at 0.01 µM (A498): 92%
growth at 1 µM (SK-MEL-2 [5]): 22%
growth at 1 µM (MCF7 [6]): 17%
growth at 0.01 µM (COLO 205): 100%
growth at 0.01 µM (NCI-H322M): 98%
growth at 0.01 µM (SK-MEL-28): 99%
growth at 0.01 µM (T47D): 97%
growth at 1 µM (HCT-116): 31%
growth at 100 µM (NCI-H460): 5%
growth at 1 µM (NCI-H23): 63%
growth at 0.01 µM (MDA-MB-435): 96%
growth at 10 µM (MDA-MB-468): -15%
growth at 0.1 µM (SF-539): 91%
growth at 10 µM (OVCAR-3): 2%
growth at 10 µM (SW-620): 23%
growth at 1 µM (U-251 [7]): 40%
growth at 100 µM (RXF 393): -8%
growth at 0.01 µM (ACHN [8]): 101%
growth at 0.01 µM (M14): 95%
growth at 0.01 µM (HOP-62): 94%
growth at 0.01 µM (MOLT-4): 102%
growth at 10 µM (NCI-H522): 4%
growth at 10 µM (SK-MEL-2 [9]): -10%
growth at 10 µM (UACC-62): 25%

COc1cc(-c2nn(-c3cccc(NC(=O)c4ccc(N5CCOCC5)c(C(F)(F)F)c4)c3)cc2-c2ccncc2)ccc1Cl
growth at 10 µM (ACHN [1]): 2%
growth at 10 µM (IGROV-1): -7%
growth at 0.1 µM (SR): 19%
growth at 10 µM (HOP-92): -26%
growth at 0.1 µM (MCF7 [2]): 76%
growth at 10 µM (SF-295): -64%
growth at 10 µM (OVCAR-4): 32%
growth at 0.1 µM (786-0): 100%
growth at 10 µM [3]: -22%
growth at 100 µM (Malme-3M): -24%
growth at 100 µM (HL-60(TB)): 6%
growth at 0.01 µM (U-251 [4]): 101%
growth at 0.01 µM (A498): 90%
growth at 1 µM (SK-MEL-2 [5]): 24%
growth at 1 µM (MCF7 [6]): 18%
growth at 0.01 µM (COLO 205): 106%
growth at 0.01 µM (NCI-H322M): 103%
growth at 0.01 µM (SK-MEL-28): 100%
growth at 0.01 µM (T47D): 102%
growth at 1 µM (HCT-116): 33%
growth at 100 µM (NCI-H460): 1%
growth at 1 µM (NCI-H23): 47%
growth at 0.01 µM (MDA-MB-435): 90%
growth at 10 µM (MDA-MB-468): -64%
growth at 0.1 µM (SF-539): 68%
growth at 10 µM (OVCAR-3): -36%
growth at 10 µM (SW-620): 17%
growth at 1 µM (U-251 [7]): 25%
growth at 100 µM (RXF 393): -27%
growth at 0.01 µM (ACHN [8]): 102%
growth at 0.01 µM (M14): 98%
growth at 0.01 µM (HOP-62): 96%
growth at 0.01 µM (MOLT-4): 109%
growth at 10 µM (NCI-H522): -14%
growth at 10 µM (SK-MEL-2 [9]): -2%
growth at 10 µM (UACC-62): -4%
